Assay results reported in paper PMC4492635 (Drug Design, Development and Therapy, 2015).

Experiments:
hHMGR = target: T1, hHMGR (Homo sapiens, UniProt P04035); test: Enzymatic assay of recombinant hHMGR; format: biochemical; details: result in words, Figure 4
T1 sequence (P04035 450-883 limits assumed): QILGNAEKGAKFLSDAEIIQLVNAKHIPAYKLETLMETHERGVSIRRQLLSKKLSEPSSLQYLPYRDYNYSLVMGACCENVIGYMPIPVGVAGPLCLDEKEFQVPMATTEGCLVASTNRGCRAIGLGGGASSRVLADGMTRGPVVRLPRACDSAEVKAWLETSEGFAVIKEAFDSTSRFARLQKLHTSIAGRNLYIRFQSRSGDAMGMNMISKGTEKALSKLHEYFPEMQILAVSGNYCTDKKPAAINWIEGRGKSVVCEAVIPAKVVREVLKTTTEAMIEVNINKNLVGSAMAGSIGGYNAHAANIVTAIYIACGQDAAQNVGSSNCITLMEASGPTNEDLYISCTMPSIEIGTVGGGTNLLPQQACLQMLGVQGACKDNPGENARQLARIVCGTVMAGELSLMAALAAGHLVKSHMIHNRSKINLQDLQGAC

HepG2 cells = test: MTT assay, cellular toxicity on HepG2 cells; format: cell-based; details: 24 h treatment, result in words

Structure (SMILES) | inhibition of hHMGR activities (hHMGR) | cytotoxic effect (HepG2 cells)
O=C(/C=C/c1ccc(O)c2oc(-c3ccc(O)c(O)c3)cc12)O[C@H](Cc1ccc(O)c(O)c1)C(=O)O [Compound 1, (2r)-3-(3,4-dihydroxyphenyl)-2-[(E)-3-[2-(3,4-dihydroxyphenyl)-7-hydroxy-1-benzofuran-4-yl]prop-2-enoyl] oxypropanoic acid] | effectively inhibit | 
Nc1nc(O)c2nc(CNc3ccc(C(=O)N[C@@H](CCC(=O)O)C(=O)O)cc3)cnc2n1 [Compound 10, (2S)-2-[(4-{[(2-amino-4-hydroxypteridin-6-yl)methyl]amino}phenyl) formamido] pentanedioic acid] | no inhibitory capability | 
COc1cc(/C=C/C(=O)CC(=O)/C=C/c2ccc(O)c(OC)c2)ccc1O [Compound 3, (1E,6E)-1,7-bis(4-hydroxy-3-methoxyphenyl)-1,6-heptadiene-3,5-dione] | effectively inhibit | 
CCCCCCCCCCCCCCCCCCCCCCO [Compound 8, Docosan-1-ol] | effectively inhibit | milder cytotoxic effect
